Assays:
N2a cells = assay: LC3 puncta and tfLC3 autophagy flux imaging in N2a cells; assay type: cell-based, mouse
Experimental: N2a cells are treated with E4 (1 μM) in the presence or absence of CQ for 12 hours. The cells are fixed and stained with LC3 antibody (red) and DAPI (blue). Representative cells are then selected and photographed under a DeltaVision Deconvolution Microscope (GE Healthcare).
N2a cells are transiently transfected with mRFP-GFP-LC3 (tfLC3) plasmid and then treated with E4 (1 μM) or CQ (1 μM) for 12 hours. Representative cells are then selected and photographed under a DeltaVision Deconvolution Microscope (GE Healthcare).
After transiently knockdown the expression of TFEB, N2a cells are treated with E4 (1 μM) for 12 hours, the cells were then stained with LC3 antibody (red) and DAPI (blue).
Cells are seeded on coverslips placed in 24-well plates. For autophagy flux assay, cells are transfected with tfLC3 plasmid for 24 hours and then treated with the indicated compounds. For other assays, at the end drug treatment, slices are fixed with 3.7% paraformaldehyde, permeabilized in 0.2% Triton X-100 and blocked with 5% BSA. After blocking, the slices are stained with anti-TFEB (1:200) or anti-LC3 (1:500) antibodies overnight at 4° C. […] Cells are visualized using the Eclipse 80i fluorescence microscope (Nikon Instruments Inc.) or the DeltaVision Deconvolution Microscope (GE Healthcare).

Hela cells = assay: Western blot of TFEB, LC3-II, LAMP1, CTSD in Hela cells; assay type: cell-based, human
Experimental: (§1) Various gene expressions in Hela cells (FIG. 7A) and SH-SY5Y cells (FIG. 7B) after treated with C1 (1 μM) for 12 h. mRNA transcript abundance is assessed by real-time PCR using specific primers for the indicated genes. Relative quantification (RQ) is presented as means±SD of three independent experiments. FIG. 7C is western blot showing the protein levels of autophagy marker (LC3-II), TFEB and lysosome markers (LAMP1, CTSD) in Hela and SH-SY5Y cells having treated with C1 (0.5, 1 μM) or sucrose (100 mM) for 12 h. The relative intensity of autophagy marker (LC3-II), TFEB and lysosome markers (LAMP1, CTSD) normalized to that of ACTB/β-actin in Hela cells (FIG. 7D) and SH-SY5Y cells (FIG. 7E). Data are presented as the mean±SD from three independent experiments. *p<0.05 vs. the control (0.1% DMSO). […] Autophagy-enhancing effect of C1 is TFEB-dependent. Data are presented as the mean±SD from three independent experiments. *p<0.05 vs. the control. N. S.=not significant.
N2a, Hela and Hela cells stably expressing 3×-Flag-TFEB are cultured in DMEM supplemented with 10% FBS. SH-SY5Y cells are cultured in DMEM/F12 supplemented with 10% FBS. For drug treatment, the full medium is replaced by fresh Opti-MEM I and then the compounds (in 0.1% DMSO) are added to the cells and incubated for 12 h. Inducible PC12 cells overexpressing SNCA (WT and A53T) (a kind gift from Prof. David C. Rubinsztein at Cambridge University) are grown in DMEM supplemented with 10% horse serum, 5% FBS, 50 μg/ml G418, and 150 μg/ml hygromycin B at 37° C., 10% CO2. Cells are treated with 2 μg/ml doxycycline (Dox) for 24 h to induce SNCA expression. The full medium is changed to Opti-MEM I containing the testing compounds for another 48 h. […]
(§2) Cells are lysed on ice in 1× Lysis Buffer (9803, Life Technologies) with complete protease inhibitor mixture (04693124001, Roche Applied Science). […] The protein signals are detected by ECL kit (32106, Pierce) and quantified using ImageJ software.

[1] = Acute toxicity by single-dose intravenous tail vein injection; settings: Sprague-Dawley, rat, in vivo, rats, read-out: medium lethal dose (LD50)
SH-SY5Y cells = assay: Western blot of TFEB, LC3-II, LAMP1, CTSD in SH-SY5Y cells; assay type: cell-based, human; settings: SH-SY5Y cells, 0.5, 1 μM, 12 h
Experimental: as §1
N2a, Hela and Hela cells stably expressing 3×-Flag-TFEB are cultured in DMEM supplemented with 10% FBS. SH-SY5Y cells are cultured in DMEM/F12 supplemented with 10% FBS. […]
as §2

SMILES | mRFP-GFP-LC3 (tfLC3) puncta (autophagy flux, autolysosome formation) (N2a cells; N2a cells transfected with tfLC3, 12 hours) | LC3 punctuates in the presence of CQ (N2a cells; N2a cells, 1 μM, 12 hours) | LC3 punctuates compared to vehicle control (N2a cells; N2a cells, 1 μM, 12 hours, endogenous LC3 staining) | autophagy/lysosomal biogenesis (LC3-II, LAMP1, CTSD protein levels) (Hela cells; Hela cells, 0.5, 1 μM, 12 h) | protein levels of TFEB (Hela cells; Hela cells, 0.5, 1 μM, 12 h) | increase in LC3-II levels in cells transfected with TFEB siRNA (Hela cells; Hela cells, siTFEB 100 nM 72 h, then 1 μM 12 h) | LD50 [1] | autophagy/lysosomal biogenesis (LC3-II, LAMP1, CTSD protein levels) (SH-SY5Y cells) | protein levels of TFEB (SH-SY5Y cells)
O=C(/C=C/c1ccccc1I)/C=C/c1ccccc1I [E4] | significantly increases the number of red-only puncta | further enhances | significantly increases |  |  |  |  |  | 
COc1ccccc1/C=C/C(=O)/C=C/c1ccccc1OC [C1, 1,5-bis(2-methoxyphenyl)penta-1,4-dien-3-one] |  |  |  | activated | increased | blocked | 175 mg/kg | activated | increased

— US9540299B2, “MTOR-independent activator of TFEB for autophagy enhancement and uses thereof” (Hong Kong Baptist University, priority 2015, dated 2017)
